Source: US20090076006A1, “HSP90 INHIBITORS CONTAINING A ZINC BINDING MOIETY” (priority 2007, published 2009)

Tests used:
HSP90 = molecular target: T1, HSP90 (Homo sapiens, UniProt P07900); assay: HSP90 assay (chaperone luciferase refolding / competition binding fluorescence polarization); conditions: Table B does not say which of the two described
T1 construct: purchased Assay Design SPP-776F
Method: (a) An In Vitro Assay which Determines the Ability of a Test Compound to Inhibit Hsp90 Chaperone Activity.
The Hsp90 chaperone assay was performed to measure the ability of HSP90 protein to refold the heat-denatured luciferase protein. HSP90 was first incubated with different concentrations of test compounds in denaturation buffer (25 mM Tris, pH7.5, 8 mM MgSO4, 0.01% bovine gamma globulin and 10% glycerol) at room temperature for 30 min. Luciferase protein was added to denaturation mix and incubated at 50° C. for 8 min. The final concentration of HSP90 and luciferase in denaturation mixture were 0.375 μM and 0.125 μM respectively. A 5 μl sample of the denatured mix was diluted into 25 μl of renaturation buffer (25 mM Tris, pH7.5, 8 mM MgSO4, 0.01% bovine gamma globulin and 10% glycerol, 0.5 mM ATP, 2 mM DTT, 5 mM KCl, 0.3 μM HSP70 and 0.15 μM HSP40). The renaturation reaction was incubated at room temperature for 150 min, followed by dilution of 10 μl of the renatured sample into 90 μl of luciferin reagent (Luclite, PerkinElmer Life Science). The mixture was incubated at dark for 5 min before reading the luminescence signal on a TopCount plate reader (PerkinElmer Life Science).
(b) HSP90 Competition Binding (Fluorescence Polarization) Assay.
A fluorescein isothiocyanate (FITC) labeled GM was purchase from InvivoGen (ant-fgl-1). The interaction between HSP90 and labeled GM forms the basis for the fluorescence polarization assay. A free and fast-tumbling FITC labeled GM emits random light with respect to the plane of polarization plane of excited light, resulting in a lower polarization degree (mP) value. When GM is bound to HSP90, the complex tumble slower and the emitted light is polarized, resulting in a higher mP value. This competition binding assay was performed in 96-well plate and with each assay contained 10 and 50 nM of labeled GM and purified HSP90 protein (Assay Design, SPP-776F) respectively. The assay buffer contained 20 mM HEPES (pH 7.3), 50 mM KCl, 1 mM DTT, 50 mM MgCl2, 20 mM Na2MoO4, 0.01% NP40 with 0.1 mg/ml bovine gamma-globulin. Compounds are diluted in DMSO and added to the final assay before labeled GM with concentration range from 20 uM to 2 nM. mP value was determined by BioTek Synergy II with background subtraction after 24 hours of incubation at 4° C.

[1] = tested on: HDAC (HeLa nuclear extract); assay: HDAC fluorimetric assay (inhibition of HDAC enzymatic activity); assay type: biochemical; conditions: HDAC fluorimetric assay kit
Method: (c) An In Vitro Assay which Determines the Ability of a Test Compound to Inhibit HDAC Enzymatic Activity.
HDAC inhibitors were screened using an HDAC fluorimetric assay kit (AK-500, Biomol, Plymouth Meeting, Pa.). Test compounds were dissolved in dimethylsulphoxide (DMSO) to give a 20 mM working stock concentration. Fluorescence was measured on a WALLAC Victor 2 plate reader and reported as relative fluorescence units (RFU). Data were plotted using GraphPad Prism (v4.0a) and IC50's calculated using a sigmoidal dose response curve fitting algorithm. Each assay was setup as follows: Defrosted all kit components and kept on ice until use. Diluted HeLa nuclear extract 1:29 in Assay Buffer (50 mM Tris/Cl, pH 8.0, 137 mM NaCl, 2.7 mM KCl, 1 mM MgCl2). Prepared dilutions of Trichostatin A (TSA, positive control) and tested compounds in assay buffer (5× of final concentration). Diluted Fluor de Lys™ Substrate in assay buffer to 100 uM (50 fold=2× final). Diluted Fluor de Lys™ developer concentrate 20-fold (e.g. 50 μl plus 950 μl Assay Buffer) in cold assay buffer. Second, diluted the 0.2 mM Trichostatin A 100-fold in the 1× Developer (e.g. 10 μl in 1 ml; final Trichostatin A concentration in the 1× Developer=2 μM; final concentration after addition to HDAC/Substrate reaction=1 μM). Added Assay buffer, diluted trichostatin A or test inhibitor to appropriate wells of the microtiter plate. Added diluted HeLa extract or other HDAC sample to all wells except for negative controls. Allowed diluted Fluor de Lys™ Substrate and the samples in the microtiter plate to equilibrate to assay temperature (e.g. 25 or 37° C. Initiated HDAC reactions by adding diluted substrate (25 μl) to each well and mixing thoroughly. Allowed HDAC reactions to proceed for 1 hour and then stopped them by addition of Fluor de Lys™ Developer (50 μl). Incubated plate at room temperature (25° C.) for 10-15 min. Read samples in a microtiter-plate reading fluorimeter capable of excitation at a wavelength in the range 350-380 nm and detection of emitted light in the range 440-460 nm.

| SMILES | IC50 (HSP90) [nM] | IC50 [1] [nM] | melting point [°C] |
| --- | --- | --- | --- |
| COc1ccc(-c2c(C(=O)NCCCCCCC(=O)NO)noc2-c2cc(Cl)c(O)cc2O)cc1 [Compound 9, 5-(5-chloro-2,4-dihydroxyphenyl)-N-(7-(hydroxylamino)-7-oxoheptyl)-4-(4-methoxyphenyl)isoxazole-3-carboxamide] | ≤ 100 | ≤ 100 | – |
| CC(C)c1cc(-c2onc(C(=O)NCCCC(=O)NO)c2-c2ccc(CN3CCOCC3)cc2)c(O)cc1O [Compound 25, 5-(2,4-Dihydroxy-5-isopropylphenyl)-N-(4-(hydroxyamino)-4-oxobutyl)-4-(4-(morpholinomethyl)phenyl)isoxazole-3-carboxamide] | ≤ 100 | – | 129 to 130 |
| COc1ccc(-c2c(C(=O)NCCC(=O)NO)noc2-c2cc(Cl)c(O)cc2O)cc1 [Compound 5, 5-(5-chloro-2,4-dihydroxyphenyl)-N-(3-(hydroxyl-amino)-3-oxopropyl)-4-(4-methoxyphenyl)isoxazole-3-carboxamide] | ≤ 100 | 1000 to 10000 | – |
| CCNC(=O)c1noc(-c2cc(Cl)c(O)cc2O)c1-c1ccc(OCCCC(=O)NO)cc1 [Compound 1, 5-(5-chloro-2,4-dihydroxyphenyl)-N-ethyl-4-(4-(4-(hydroxyamino)-4-oxobutoxy)phenyl)isoxazole-3-carboxamide] | ≤ 100 | 100 to 1000 | – |
| COc1ccc(-c2c(C(=O)NCCCCCC(=O)NO)noc2-c2cc(Cl)c(O)cc2O)cc1 [Compound 8, 5-(5-chloro-2,4-dihydroxyphenyl)-N-(6-(hydroxylamino)-6-oxohexyl)-4-(4-methoxyphenyl)isoxazole-3-carboxamide] | ≤ 100 | 100 to 1000 | – |
| CCNC(=O)c1noc(-c2cc(Cl)c(O)cc2O)c1-c1ccc(OCCCCC(=O)NO)cc1 [Compound 2, 5-(5-Chloro-2,4-dihydroxyphenyl)-N-ethyl-4-(4-(5-(hydroxyamino)-5-oxopentyloxy)phenyl)isoxazole-3-carboxamide] | ≤ 100 | 1000 to 10000 | – |

Other lines, results leading:

| IC50 (HSP90) [nM] | IC50 [1] [nM] | melting point [°C] | SMILES |
| --- | --- | --- | --- |
| ≤ 100 | 100 to 1000 | – | CCNC(=O)c1noc(-c2cc(Cl)c(O)cc2O)c1-c1ccc(OCCCCCCC(=O)NO)cc1 [Compound 4, 5-(5-chloro-2,4-dihydroxyphenyl)-N-ethyl-4-(4-(7-(hydroxylamino)-7-oxoheptyloxy)phenyl)isoxazole-3-carboxamide] |
| ≤ 100 | ≤ 100 | – | COc1ccc(-c2c(C(=O)NCCCCCCCC(=O)NO)noc2-c2cc(Cl)c(O)cc2O)cc1 [Compound 10, 5-(5-chloro-2,4-dihydroxyphenyl)-N-(8-(hydroxylamino)-8-oxooctyl)-4-(4-methoxyphenyl)isoxazole-3-carboxamide] |
| ≤ 100 | 100 to 1000 | 118 to 119 | CCNC(=O)c1noc(-c2cc(C(C)C)c(O)cc2O)c1-c1ccc(CN(C)CCCCCCC(=O)NO)cc1 [Compound 24, 5-(2,4-Dihydroxy-5-isopropylphenyl)-N-ethyl-4-(4-(((7-(hydroxyamino)-7-oxoheptyl)(methyl)amino)methyl)phenyl)isoxazole-3-carboxamide] |
| ≤ 100 | ≥ 10000 | 120 to 122 | CCNC(=O)c1noc(-c2cc(C(C)C)c(O)cc2O)c1-c1ccc(CN(C)CCC(=O)NO)cc1 [Compound 16, 5-(2,4-dihydroxy-5-isopropylphenyl)-N-ethyl-4-(4-(((3-(hydroxyamino)-3-oxopropyl)(methyl)amino)methyl)phenyl)isoxazole-3-carboxamide] |
| ≤ 100 | 1000 to 10000 | – | COc1ccc(-c2c(C(=O)NCCCC(=O)NO)noc2-c2cc(Cl)c(O)cc2O)cc1 [Compound 6, 5-(5-chloro-2,4-dihydroxyphenyl)-N-(4-(hydroxyamino)-4-oxobutyl)-4-(4-methoxyphenyl)isoxazole-3-carboxamide] |
| ≤ 100 | 100 to 1000 | – | CCNC(=O)c1noc(-c2cc(Cl)c(O)cc2O)c1-c1ccc(OCCCCCC(=O)NO)cc1 [Compound 3, 5-(5-Chloro-2,4-dihydroxyphenyl)-N-ethyl-4-(4-(6-(hydroxyamino)-6-oxohexyloxy)phenyl)isoxazole-3-carboxamide] |
